Data set [1] has as its system Human leukemia cell line K562. The experiment in a line: MTT assay, inhibition of cell growth. The settings on record: Homo sapiens, K562; 30 μg/ml; 24 hours; dissolved with NaOH solution, pH 7.5; read-out: Inhibitory rate (%) on K562 cell growth. The format is cell-based. The protocol:
MTT assay was performed to test the cytotoxicity. The K562 and SGC7901 cells were maintained in exponential growth in RPMI 1640 medium supplemented with 15% heat-inactivated newborn calf serum. The cells were plated at a density of 2×10^4 cells/100 μl medium/well into 96-well plate with medium containing samples in five final concentrations (7.5, 15, 30, 60 and 90 μg/ml) for iso-C15 (either synthesized or extracted) and one final concentration (30 μg/ml) for the others. The media in control wells contained no samples. The cells were incubated at 37° C. in a highly humidified incubator under 5% CO2 atmosphere for 24 hours. The supernatant was removed by fast inversion of the plate. 20 μl of 5 mg/ml MTT solution were added into each well. Incubation was continued for 4 hours. DMSO 100 μl/well was added and the plate was vibrated for 10 minutes. A570nm was read at the Immunoreader BioTek EL311S.
The inhibition rate (%)=1−(mean A570nm in test wells/mean A570nm in control wells)
In general terms: Tetrazolium dyes change colour on reduction, which living cells bring about.

For data set [2], the system named is SNU-423 human hepatocellular carcinoma cells. As to the kind of experiment: Apoptosis morphology, light microscope. The settings on record: 60 μg/ml, 24 hours. The format is cell-based. The protocol:
(§1) Human cancer cell lines DU-145 (prostate cancer), K562 (leukemia), HCT116 (colon cancer), H1688 (lung cancer), SUN423 (hepatocarcinoma), MCF7 (breast cancer), CRL-1687 (pancreatic cancer), and SUN-1 (gastric cancer) were obtained from American Type Culture Collection (ATCC). 30 ml blood was collected from a health person and normal peripheral mononuclear cells were separated by Ficoll separation solution (Sigma). All cells were maintained in RPMI 1640, DMEM, or McCoy medium supplemented with 10% FCS, […] streptomycin and 100 u/ml penicillin. Normal human peripheral mononuclear cells, K562 and SUN-1 were suspended cells. After spinning at 1,500 RPM for 5 min, supernatants were discharged and cells were resuspended and expended in fresh medium. The other tumor cell lines were adherent cells and were dispersed with 0.05% trypsin/0.01% EDTA (Irvine Scientific, CA) for expansion. Cells were seeded in T75 flasks at 2×10^6 cells/flask in culture medium supplemented with 10% fetal bovine serum and incubated overnight at 37° C. with 5% CO2. […] Cells were then prepared for flow cytometry analysis, in situ cell death detection, DNA fragmentation and Western blot assay followed the preparation methods for each assay. Cell pellets treated for 2 and 4 hr with either iso-C15 or control were also stored at −70° C. for future studies of gene regulation. […]

For data set [3], the system named is SNU-1 human gastric carcinoma cell lines. As to the kind of experiment: Apoptosis morphology, H&E, light microscope. It counts as cell-based. The following applies: 60 μg/ml, 8 hours. The protocol: as §1
The test system of data set [4] is MCF-7 human breast adenocarcinoma cells. As to the kind of experiment: Flow cytometry annexin V / PI apoptosis detection. The format is cell-based. The following applies: 60 μg/ml. The protocol:
Human cancer cell lines DU-145 (prostate cancer), K562 (leukemia), HCT116 (colon cancer), H1688 (lung cancer), SUN423 (hepatocarcinoma), MCF7 (breast cancer), CRL-1687 (pancreatic cancer), and SUN-1 (gastric cancer) were obtained from American Type Culture Collection (ATCC). 30 ml blood was collected from a health person and normal peripheral mononuclear cells were separated by Ficoll separation solution (Sigma). All cells were maintained in RPMI 1640, DMEM, or McCoy medium supplemented with 10% FCS, […] streptomycin and 100 u/ml penicillin. Normal human peripheral mononuclear cells, K562 and SUN-1 were suspended cells. After spinning at 1,500 RPM for 5 min, supernatants were discharged and cells were resuspended and expended in fresh medium. The other tumor cell lines were adherent cells and were dispersed with 0.05% trypsin/0.01% EDTA (Irvine Scientific, CA) for expansion. Cells were seeded in T75 flasks at 2×10^6 cells/flask in culture medium supplemented with 10% fetal bovine serum and incubated overnight at 37° C. with 5% CO2. The adherent cells attached to the plate were striped with disposable cell scrapers (Fisher Scientific) after treated either with 1% iso-C15, anteiso-C15 or control solution for 1, 2, 4, 8 and 24 hours and then combined with respective float cells. Cells were then prepared for flow cytometry analysis, in situ cell death detection, DNA fragmentation and Western blot assay followed the preparation methods for each assay. Cell pellets treated for 2 and 4 hr with either iso-C15 or control were also stored at −70° C. for future studies of gene regulation.
A flow cytometer (FACScan) with Consort 30 software for gating analysis (Becton Dickinson, San Jose, Calif.) was used. The Apoptosis Detection kit (R&D Systems) was used to quantitatively determine the percentage of cells undergoing apoptosis by virtue of their ability to bind annexin V and exclude propidium iodide (PI). Cells were washed in cold PBS twice and resuspended in binding buffer. Fluorescent-labeled annexin V and PI were added to the cells. The cells undergoing apoptosis, expressing phosphotidyiserine on the outer leaflet of cell membranes, would bind annexin V. The cells in later stage of apoptosis or necrosis, with a compromised cell membrane, would allow PI to bind to the cellular DNA. The resulting cells were immediately analyzed by flow cytometer equipped with a single laser emitting excitation light at 488 nm. The annexin V and PI generated signals can be detected in signal detector FL1 and FL2, respectively. […]
For orientation: A flow cytometer gives signals particle by particle.

The test system of the next data set is Lewis mouse lung tumor. The protocol: Concentrated Q-can oral liquid (containing specific branched-chain fatty acids 3.6 mg/ml); Female F1 mice (C57/B1 and DBA/2) weighing 18–22 g; Lewis mouse lung tumor.
The mice of the test group were administrated with concentrated Q-can oral liquid at a daily dose of 36 mg specific branched-chain fatty acids per kg weight for 10 days before transplantation of Lewis mouse lung tumor. All the mice were transplanted subcutaneously in the subaxillary region with a piece of Lewis tumor of approximately 2 mm in diameter. The treatments of intraperitoneal injection of chemotherapy drug Cytoxan (CTX) in 30 mg/kg were given once a day after transplantation over an 8 day period for the positive control group. The treatments for the normal control group were daily injection of normal saline for 8 days. The administration of concentrated Q-can oral liquid for the test group was initiated 10 days before tumor transplantation and continued for another 8 days. Finally all the animals were sacrificed by spinal elongation. Tumors were excised and body and tumor weights were recorded.

The test system of data set [5] is mouse liver cancer HAC cell line. The experiment in a line: Enhancement of effectiveness of CP, mouse liver cancer HAC ascites model. It counts as in vivo, Kunming mice. The settings on record: CP 50 mg/kg i.p. only (positive control). The protocol:
Q-can oral liquid; mouse liver cancer HAC cell line; male Kunming mice weighing 20–25 g; commercial cyclophosphamide (CP).
Forty mice were randomly divided into 5 groups. In three test groups, 36%, 60% and 100% Q-can oral liquids (diluted with water) were given, respectively, while water was given in both control groups. On the 8th day, 0.2 ml HAC cancer cell suspensions (10^7/ml) were injected into the abdominal cavities of each mouse under aseptic condition. On the 1st, 3rd and 5th days after injection. CP (50 mg/kg) was injected i.p. into the mice in all test groups and positive control group. From the 9th day after injection, normal feeding was resumed as before the test. Date of death of each mouse was recorded, and the average life span and the rate of increase in life span were calculated. The rate of increase in life span (ILS %) is defined as following: […]

In data set [6] the test system is Human gastric adenocarcinoma SGC-7901 xenograft. The experiment in a line: Human gastric adenocarcinoma SGC-7901 xenografted into nude mice. It counts as in vivo, Balb/c-nu/nu athymia mice. The settings on record: MMC 2.0 mg/kg i.p. Qd × 14. The protocol:
Female Balb/c-nu/nu athymia mice, 6 weeks old, weighing 18–22 g, housed in specific pathogen free (SPF) condition throughout the course of experiment; concentrated Q-can oral liquid contains 3.6 mg/ml specific branched-chain fatty acids; the drug used for positive control mitomycin C (MMC) was commercially available from Kyowa Hakko Kogyo Co., Ltd., Japan.
Human gastric adenocarcinoma SGC-7901 xenograft was established and maintained. For the experiment, the xenograft fragments of diameter of about 2 mm were inoculated subcutaneously into the right submaxillary regions of nude mice. The animals were randomly divided into five groups five days after inoculation. […] groups, respectively, while concentrated Q-can oral liquid was given in test groups once a day p.o., starting on the same day, at daily doses of 18, 36 and 72 mg branched-chain fatty acids per kg weight, respectively, for 14 days. Experiment was terminated 20 days post-implantation, and mice were sacrificed by spinal elongation. Tumors were removed and the weights of treated versus control tumors were compared. Inhibition rate was calculated. The experiment was repeated once.
A general note: A xenograft is tissue or cells of one species grown in another, often human tumour cells in immunodeficient mice.

Setting [7] is: CTX 30 mg/kg i.p. once a day, 8 days.

One may read the viability as a per cent measure of how many cells are alive, often set against a control. A higher viability goes with less harm to the cells.

For `CCC(C)CCCCCCCCCCCCCC(=O)O` (stereo not drawn) [anteiso-C18, 15-methylheptadecanoic acid], the inhibition at 30 µg/mL in data set [1] amounted to 71.7%.

Regarding `CCC(C)CCCCCCCCCCC(=O)O` (stereo not drawn) [anteiso-C15, 12-methyltetradecanoic acid], the inhibition at 30 µg/mL in data set [1] is 73.1%. The “morphological changes indicative of apoptosis” value in data set [2] was “exhibited cell volume decrease due to shrinkage and bubbles inside the cell”; in data set [3] it was “chromatin condensation and cytoplasmic granularity were noted”. The results for the “FL1/FL2 pattern (annexin V / PI), apoptosis” value in data set [4] (4 hours) and in data set [4] (24 hours) were “many cells were undergoing apoptosis” and “the majority of cells had already died”, respectively.

Regarding `CCC(C)CCCCCCCCCC(=O)O` (stereo not drawn) [anteiso-C14, 11-methyltridecanoic acid], the inhibition at 30 µg/mL in data set [1] came to 72.6%.

In the case of `CCC(C)CCCCCCCCCCCC(=O)O` (stereo not drawn) [anteiso-C16, 13-methylpentadecanoic acid], the inhibition at 30 µg/mL in data set [1] is 70.7%.

`O=P1(N(CCCl)CCCl)NCCCO1` (stereo not drawn) [CTX, Cytoxan] returned a body weight in. (initial) with Lewis mouse lung tumor (CTX 30 mg/kg i.p.) of 21.2 g. In the data set on Lewis mouse lung tumor (setting [7]), the TIR is 62.6%, the body weight fi. (final) came to 20.3 g and the “tumor weight mean ± SD” value was found to be 0.71 ± 0.36 g. In the data set on Lewis mouse lung tumor (CTX i.p. injection, 8-day period), this compound returned a viability of 70%.

Take `CC(C)CCCCCCCCCCCCCCC(=O)O` [iso-C18, 16-methylheptadecanoic acid]: the inhibition at 30 µg/mL in data set [1] worked out at 68.4%.

As for `CC(C)CCCCCCCCCCCCCC(=O)O` [iso-C17, 15-methylpalmitic acid], the inhibition at 30 µg/mL in data set [1] was 70.8%.

On to `CC(C)CCCCCCCCC(=O)O` [iso-C12, 10-methylundecanoic acid], for which, in data set [1], the inhibition at 30 µg/mL was 70.7%.

In the case of `CC(C)CCCCCCCCCC(=O)O` [iso-C13, 11-methyllauric acid], in data set [1], the inhibition at 30 µg/mL amounted to 71%.

`O=P1(N(CCCl)CCCl)NCCCO1` (stereo not drawn) [CP, cyclophosphamide]: in data set [5], the “ILS % (rate of increase in life span)” value is 22.86%, the life span amounted to 13.06 ± 3.03 days, the “mice No (>17 d)” value was found to be 1 and the prolonged days turned out to be 2.44 ± 2.58 days.

In the case of `CC(C)CCCCCCCCCCCCC(=O)O` [iso-C16, 14-methylpentadecanoic acid], in data set [1], the inhibition at 30 µg/mL amounted to 71.6%.

In the case of `CO[C@@]12[C@H](COC(N)=O)C3=C(C(=O)C(C)=C(N)C3=O)N1C[C@@H]1N[C@@H]12` [MMC, mitomycin C], in data set [6] (Test I), the “Body wt. Fi.” value is 22.0, the “Body wt. In.” value is given as 22.4, the Inhibition % was determined as 71.49% and the “Tumor wt. X ± SD” value is 0.33 ± 0.24 g. For the same compound, in data set [6] (Test II), the “Body wt. Fi.” value is reported as 21.1/21.1, the “Body wt. In.” value is 21.1/21.1, the Inhibition % came to 73.51% and the “Tumor wt. X ± SD” value was found to be 0.30 ± 0.33 g.

As for `CC(C)CCCCCCCCCCCCCCCCC(=O)O` [iso-C20, 18-methylnonadecanoic acid], the inhibition at 30 µg/mL in data set [1] is 62.6%.

Regarding `CC(C)CCCCCCCCCCC(=O)O` [iso-C14, 12-methyltridecanoic acid], the inhibition at 30 µg/mL in data set [1] is 72.2%.

As for `CC(C)CCCCCCCCCCCCCCCC(=O)O` [iso-C19, 17-methylstearic acid], the inhibition at 30 µg/mL in data set [1] came to 69.2%.

Source of the values: patent US7070965B1, “Small molecule anticancer compounds and related production process” (priority 1998, dated 2006).
